{"source": "patent US20260193250A1", "about": "“TOLL-LIKE RECEPTOR 7 AGONISTS AS IMMUNE-STIMULATORS TO ELICIT THE INNATE ANTITUMOR IMMUNITY” (Merck Patent GmbH, priority 2022, published 2026)"}
{"target": "T1, hTLR8 (Homo sapiens, UniProt Q9NR97)", "T1 construct": "host or cells: HEK-Blue hTLR8 (HEK293-derived SEAP reporter cells)", "T1 sequence (Q9NR97 27-1041)": "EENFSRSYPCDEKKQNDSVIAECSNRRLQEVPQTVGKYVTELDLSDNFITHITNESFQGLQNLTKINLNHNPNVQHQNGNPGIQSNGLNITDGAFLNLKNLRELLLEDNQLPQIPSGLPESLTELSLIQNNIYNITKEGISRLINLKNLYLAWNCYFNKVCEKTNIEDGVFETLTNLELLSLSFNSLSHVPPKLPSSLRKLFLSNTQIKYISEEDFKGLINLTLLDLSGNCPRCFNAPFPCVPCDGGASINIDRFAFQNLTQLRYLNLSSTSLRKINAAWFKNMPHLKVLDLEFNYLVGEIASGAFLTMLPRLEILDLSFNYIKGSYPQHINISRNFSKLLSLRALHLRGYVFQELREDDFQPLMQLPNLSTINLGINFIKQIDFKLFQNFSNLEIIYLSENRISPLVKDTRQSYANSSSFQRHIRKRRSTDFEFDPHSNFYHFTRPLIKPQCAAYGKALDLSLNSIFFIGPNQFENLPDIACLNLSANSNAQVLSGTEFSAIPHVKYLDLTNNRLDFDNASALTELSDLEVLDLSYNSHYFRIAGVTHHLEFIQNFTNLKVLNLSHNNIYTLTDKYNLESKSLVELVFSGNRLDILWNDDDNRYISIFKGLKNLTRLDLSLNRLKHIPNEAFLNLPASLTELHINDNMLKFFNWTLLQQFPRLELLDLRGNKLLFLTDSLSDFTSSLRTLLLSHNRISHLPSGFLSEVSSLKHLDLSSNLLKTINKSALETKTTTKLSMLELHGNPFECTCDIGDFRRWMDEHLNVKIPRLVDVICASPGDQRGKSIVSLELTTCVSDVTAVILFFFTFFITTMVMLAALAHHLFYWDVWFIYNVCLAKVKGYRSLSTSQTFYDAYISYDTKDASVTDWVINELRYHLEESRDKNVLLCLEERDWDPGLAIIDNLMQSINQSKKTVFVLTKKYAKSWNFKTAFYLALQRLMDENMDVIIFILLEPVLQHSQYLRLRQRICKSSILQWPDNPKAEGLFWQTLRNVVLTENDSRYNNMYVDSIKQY", "test": "TLR8 reporter assay in HEK-Blue cells (SEAP, Quanti-Blue)", "type": "cell-based", "conditions": "24 hours incubation, SEAP absorbance at 620 nm", "protocol": "HEK-Blue™ TLR7 and TLR8 cell lines were obtained from InvivoGen (San Diego, CA, USA). HEK-Blue cells were cultured in DMEM medium hi glucose (Gibco-10569010) supplemented with 10% HI-FBS (Aus origin) (Gibco-10100-147), 1% penicillin/streptomycin (Gibco-15140-122-100 ml) as per manufacturer's recommendation. In addition, specific antibiotic mixtures were added to the culture. 100 μg/ml Zeocin (11006-33-0), 10 μg/ml Blasticidin (ant-bl-05), 50 μg/ml Normocin (ANT-NR-1-500 MG) for HEK-Blue™ hTLR7 and 100 μg/ml Zeocin, 30 μg/ml Blasticidin, 50 μg/ml Normocin for HEK-Blue™ hTLR8 cells (all from InvivoGen).\nAll the compounds were prepared in 100% DMSO (Sigma-D2650). The compounds were serially diluted in 100% DMSO (3 fold) up to 10 point dose response curve starting with 30 μM; final concentration of DMSO in the plate was 0.3%. Resiquimod and TL8-506 (InvivoGen-tlrl-t18506) were used as controls. 0.3% DMSO and 10 μM Resiquimod were used as min and max respectively, and % activation was calculated using following formula:\n% Activation: {100−(max absorbance−absorbance)/(max absorbance−min absorbance)}×100.\nFor stimulation with TLR7/8 agonists, cells were resuspended in complete media and 40 μl of cell suspension (10,000 cells/well) was seeded on day 1 in 384 well assay plate (Thermo Scientific™ Nunc-164688) having pre-dispensed compounds with Echo Liquid handler. The plate was spun at 100 g for 1 min to settle down the cells and incubated at 37° C. with 5% CO2 for 24 hours. For measuring production of SEAP after 24 hrs of incubation, 10 μl of Quanti-Blue™ solution (InvivoGen rep-qbs2) prepared according to manufacturer's instructions was added in dark to the assay plate and incubated at 37° C. with 5% CO2 for 30 min. Post incubation, the absorbance was measured at 620 nm in Tecan spark (Spark control Magellan). EC50 were determined using Graph Pad Prism Statistical software (Version 7.05), with individual data points represent the absorbance values of duplicates.", "units": {"EC50": "nM"}}
{"smiles": "CCOCc1nc2c(N)nc3ccccc3c2n1CC(C)(C)OCCCCN1CCNCC1", "note": "[Example 10]", "EC50": "1000 to 10000"}
{"smiles": "CCOCc1nc2c(N)nc3ccccc3c2n1CC(C)(C)OCCCCN1CCOCC1", "note": "[Example 7]", "EC50": "100 to 1000"}
{"smiles": "CCOCc1nc2c(N)nc3ccccc3c2n1CC(C)(C)OCCCCn1cc(CO)nn1", "note": "[Example 13]", "EC50": "> 10000"}
{"smiles": "CCOCc1nc2c(N)nc3ccccc3c2n1CC(C)(C)OCCCCN1CCCCC1", "note": "[Example 8]", "EC50": "1000 to 10000"}
{"smiles": "CCOCc1nc2c(N)nc3ccccc3c2n1CC(C)(C)OCCCCCN1CCN(C)CC1", "note": "[Example 4]", "EC50": "100 to 1000"}
{"smiles": "CCOCc1nc2c(N)nc3ccccc3c2n1CC(C)(C)OC(=O)CN", "note": "[Example 19]", "EC50": "10 to 100"}
{"smiles": "CCOCc1nc2c(N)nc3ccccc3c2n1CC(C)(C)OCCCN1CCN(C)CC1", "note": "[Example 2]", "EC50": "1000 to 10000"}
{"smiles": "CCOCc1nc2c(N)nc3ccccc3c2n1CC(C)(C)OCCCCN1CCN(CCN)CC1", "note": "[Example 11]", "EC50": "1000 to 10000"}
{"smiles": "CCOCc1nc2c(N)nc3ccccc3c2n1CC(C)(C)OCCCCN1CCCC1", "note": "[Example 9]", "EC50": "100 to 1000"}
{"smiles": "CCOCc1nc2c(N)nc3ccccc3c2n1CC(C)(C)OCCCCN1CCN(CC(C)(C)SC)CC1", "note": "[Example 27]", "EC50": "1000 to 10000"}
{"smiles": "CCOCc1nc2c(N)nc3ccccc3c2n1CC(C)(C)OCCCCN1CCN(C)CC1", "note": "[Example 3]", "EC50": "1000 to 10000"}
{"smiles": "CCOCc1nc2c(N)nc3ccccc3c2n1CC(C)(C)OCCCCn1cc(CN)nn1", "note": "[Example 14]", "EC50": "1000 to 10000"}
{"smiles": "CCNCc1nc2c(N)nc3ccccc3c2n1CC(C)(C)OCCCCN1CCN(C)CC1", "note": "[Example 18]", "EC50": "> 10000"}
